In US6605595B1, “Avermectin derivatives” (The Kitasato Institute, priority 1999, dated 2003):

Experiments:
Format in all cases: in vivo
[1] = test system: Caenorhabditis elegans; assay: Antiparasitic activity against Caenorhabditis elegans, 96 well microplate (MIC); settings: 20° C., observed after 24 and 48 hours
Text: (§1) As model insects for simple determination of antiparasitic and insecticidal activities, those insects are desired which can be easily obtained and bred in laboratories, and have no pathogenicity to a human. Caenorhabditis elegans, an unparasitic eelworm widely used in experiments of genetics, was used as a typical steam worm, and Artemia salina used as feed for tropical fish and named Brine shrimp, was used instead of insects.
Escherichia. coli for the feed of Caenorhabditis elegans (mutant having uracil requirement) was inoculated in a seed medium for E. coli to which a small amount of uracil was added, and cultured with shaking at 27° C. for 1 day. A petri dish of 6 cm diameter was filled with 10 ml of an agar medium for eelworm proliferation, and the medium was solidified. Then 0.5 ml of the culture of E. coli was spread over the medium in the dish, and the dish was incubated at 37° C. to proliferate E. coli. A piece of the agar was collected with a platinum loop from a petri dish in which Caenorhabditis elegans successfully proliferated, and inoculated in petri dishes in which E. coli was proliferated. The petri dishes were incubated at 20° C. to proliferate Caenorhabditis elegans. Since the life of eelworm is about 2 weeks, subculture was carried out every once a week. The eelworms grown with spread on the surface of the petri dish after 3 to 5 days from subculture were used for the experiments.
The agar medium for eelworm proliferation was prepared by mixing the solutions in the following proportion: Solution A: 100 ml, Solution B: 0.1 ml, Solution C: 0.05 ml, Solution D: 0.1 ml and Solution E: 2.5 ml (without pH adjustment), and dispensing each 10 ml portion into petri dishes of 60×15 mm.
In distilled water, 2.0% of bact-trypton (DIFCO Co.), 0.55% of sodium chloride and 0.001% of uracil (SIGMA Co., pH 7.4) were dissolved, and the solution was sterilized in an autoclave at 121° C. for 20 minutes.
(§2) Each well of a 96 well microplate was filled with the solution of the test compound (methanol as a solvent), and the solvent was removed using a vacuum pump, then 250 μl of the assay medium was added to each wells (the assay medium was prepared by dissolving 7.5 mM sodium hydrogencarbonate, 7.5 mM potassium chloride, 7.5 mM calcium chloride dihydrate and 7.5 mM magnesium sulfate heptahydrate in distilled water and adding 0.01% of lecithin thereto), and then the microplate was shaken using a microplate mixer for 15 minutes. To each well, a few individuals of Caenorhabditis elegans were added by softly rubbing the surface of the agar using a toothpick, or a few individuals of Artemia salina were added together with 50 μl of the buffer. The microplate was incubated at 20° C., and then the insects were observed after 24 and 48 hours under a microscope (magnification of 40×). The results were compared to those obtained without addition of the test compound, and evaluated by 4 grades.
(§3) The evaluation results were shown by indications of 4 grades from 0 to 3.
(§4) 1: A little week movements
(§5) Of the 4 grades, Indications 3 and 2 were judged as effective, and Indications 1 and 0 as ineffective. In Table 9, the values for each compound are minimum inhibitory concentrations (MIC) which were required to give Indication 2 (or 3) for Caenorhabditis elegans or Artemia salina. In Table 9, Caenorhabditis elegans and Artemia salina are abbreviated as C.E. and A.S., respectively.

[2] = test system: Artemia salina; assay: Insecticidal model activity against Artemia salina (brine shrimp), 96 well microplate (MIC); settings: 20° C., observed after 24 and 48 hours
Text: as §1
To a buffer for Artemia salina (obtained by dissolving 0.24% of Tris, 2.57% of sodium chloride, 0.47% of magnesium chloride, 0.07% of potassium chloride, 0.02% of sodium carbonate, 0.64% of magnesium sulfate and 0.11% of calcium chloride in distilled water and adjusting the pH to 7.1 with hydrochloric acid), dried eggs of Artemia salina [Tetra Brine Shrimp Eggs, Warner Lambert Co.] were added. The noprius larvae 1 or 2 days after hatching were used for the experiments.
as §2, §3, §4, §5

[3] = test system: Adult Ctenocephalides felis; assay: Test on cat fleas / oral absorption; settings: after 24 hours
Procedure: Test on cat fleas/oral absorption
Test animals: Adult Ctenocephalides felis
Solvent: Dimethylsulfoxide (DMSO)
20 μl of this formulation are added to 4 ml of citrated cow's blood and stirred.
20 starved adult fleas (of “Georgi” species of Ctenocephalides felis) are introduced into a chamber (of a diameter of 5 cm) which is sealed with gauze at the top and bottom. A metal cylinder, whose base is sealed with parafilm, is placed on the chamber. […] Whereas the blood is heated to 37° C. a temperature of 25° C. is adjusted in the region of the flea chambers. Controls are mixed with the same volume of DMSO without the addition of any of the compounds. The test are repeated three times.
After 24 hours the mortality is determined in %.

[4] = 100 ppm in citrated cow's blood

Structure (SMILES) | C.E. minimum inhibitory concentration (MIC) required to give Indication 2 (or 3) [1] [µg/mL] | A.S. minimum inhibitory concentration (MIC) required to give Indication 2 (or 3) [2] | mortality of fleas ([3]; 10 ppm in citrated cow's blood) [%] | mortality of fleas [3, 4] [%]
CCOC(=O)C=C1C(C)OC(OC2C(C)OC(OC3C(C)=CCC4CC(CC5(C=CC(C)C(C(C)CC)O5)O4)OC(=O)C4C=C(C)C(O[Si](C)(C)C(C)(C)C)C5OCC(=CC=CC3C)C45O)CC2OC)CC1OC (stereo not drawn) [Compound 1] | 100 | 100 µg/mL | – | –
C=CCOC(=O)C=C1C(C)OC(OC2C(C)OC(OC3C(C)=CCC4CC(CC5(C=CC(C)C(C(C)CC)O5)O4)OC(=O)C4C=C(C)C(O)C5OCC(=CC=CC3C)C45O)CC2OC)CC1OC (stereo not drawn) [Compound 20] | 0.01 | 0.002 µg/mL | – | –
CCC(C)C1OC2(C=CC1C)CC1CC(CC=C(C)C(OC3CC(OC)C(OC4CC(OC)C(=CC=NOC)C(C)O4)C(C)O3)C(C)C=CC=C3COC4C(O)C(C)=CC(C(=O)O1)C34O)O2 (single isomer, unassigned) [Compound 13] | 0.01 | 0.002 µg/mL | – | –
CCC(C)C1OC2(C=CC1C)CC1CC(CC=C(C)C(OC3CC(OC)C(OC4CC(OC)C(=CCO)C(C)O4)C(C)O3)C(C)C=CC=C3COC4C(O[Si](C)(C)C(C)(C)C)C(C)=CC(C(=O)O1)C34O)O2 (stereo not drawn) [Compound 3] | 100 | 20 µg/mL | – | –
CCC(C)C1OC2(C=CC1C)CC1CC(CC=C(C)C(OC3CC(OC)C(OC4CC(OC)C(=CCN)C(C)O4)C(C)O3)C(C)C=CC=C3COC4C(O[Si](C)(C)C(C)(C)C)C(C)=CC(C(=O)O1)C34O)O2 (stereo not drawn) [Compound 14] | 100 | 5 µg/mL | – | –
CCC(C)C1OC2(C=CC1C)CC1CC(CC=C(C)C(OC3CC(OC)C(OC4CC(OC)C(=CCOC(=O)c5ccncc5)C(C)O4)C(C)O3)C(C)C=CC=C3COC4C(O[Si](C)(C)C(C)(C)C)C(C)=CC(C(=O)O1)C34O)O2 (stereo not drawn) [Compound 17] | 100 | 100 µg/mL | – | –
CCC(C)C1OC2(C=CC1C)CC1CC(CC=C(C)C(OC3CC(OC)C(OC4CC(OC)C(=CC=NOC)C(C)O4)C(C)O3)C(C)C=CC=C3COC4C(O)C(C)=CC(C(=O)O1)C34O)O2 (single isomer, unassigned) [Compound 12] | 0.01 | 0.01 µg/mL | – | –
CCC(C)C1OC2(C=CC1C)CC1CC(CC=C(C)C(OC3CC(OC)C(OC4CC(OC)C(=CC(=O)O)C(C)O4)C(C)O3)C(C)C=CC=C3COC4C(O)C(C)=CC(C(=O)O1)C34O)O2 (stereo not drawn) [Compound 25] | 0.05 | 0.01 µg/mL | 69 | 100
CCC(C)C1OC2(C=CC1C)CC1CC(CC=C(C)C(OC3CC(OC)C(OC4CC(OC)C(=CC=NNC(N)=O)C(C)O4)C(C)O3)C(C)C=CC=C3COC4C(O)C(C)=CC(C(=O)O1)C34O)O2 (stereo not drawn) [Compound 22] | 0.01 | 0.0005 µg/mL | – | –
CCC(C)C1OC2(C=CC1C)CC1CC(CC=C(C)C(OC3CC(OC)C(OC4CC(OC)C(=CC=O)C(C)O4)C(C)O3)C(C)C=CC=C3COC4C(O)C(C)=CC(C(=O)O1)C34O)O2 (stereo not drawn) [Compound 8] | 0.01 | 0.01 µg/mL | – | –
CCC(C)C1OC2(C=CC1C)CC1CC(CC=C(C)C(OC3CC(OC)C(OC4CC(OC)C(=CCO)C(C)O4)C(C)O3)C(C)C=CC=C3COC4C(O)C(C)=CC(C(=O)O1)C34O)O2 (stereo not drawn) [Compound 4] | 0.01 | 0.01 µg/mL | 42 | 100
CCC(C)C1OC2(C=CC1C)CC1CC(CC=C(C)C(OC3CC(OC)C(OC4CC(OC)C(=CC(=O)OC)C(C)O4)C(C)O3)C(C)C=CC=C3COC4C(O[Si](C)(C)C(C)(C)C)C(C)=CC(C(=O)O1)C34O)O2 (stereo not drawn) [Compound 6] | >100 | ≧100 μg/ml | – | –
CCC(C)C1OC2(C=CC1C)CC1CC(CC=C(C)C(OC3CC(OC)C(OC4CC(OC)C(=CCOC(=O)C5CCCN5C(=O)OC(C)(C)C)C(C)O4)C(C)O3)C(C)C=CC=C3COC4C(O)C(C)=CC(C(=O)O1)C34O)O2 (stereo not drawn) [Compound 30] | 0.05 | 0.01 µg/mL | – | –
CCC(C)C1OC2(C=CC1C)CC1CC(CC=C(C)C(OC3CC(OC)C(OC4CC(OC)C(=CCNC)C(C)O4)C(C)O3)C(C)C=CC=C3COC4C(O)C(C)=CC(C(=O)O1)C34O)O2 (stereo not drawn) [Compound 11] | 0.05 | 0.01 µg/mL | – | –
CCC(C)C1OC2(CC(=O)C1C)CC1CC(CC=C(C)C(OC3CC(OC)C(OC4CC(OC)C(=CC(=O)OC)C(C)O4)C(C)O3)C(C)C=CC=C3COC4C(O)C(C)=CC(C(=O)O1)C34O)O2 (stereo not drawn) [Compound 41] | 0.01 | 0.01 µg/mL | – | –
CCC(C)C1OC2(C=CC1C)CC1CC(CC=C(C)C(OC3CC(OC)C(OC4CC(OC)C(=CC=NO)C(C)O4)C(C)O3)C(C)C=CC=C3COC4C(O)C(C)=CC(C(=O)O1)C34O)O2 (single isomer, unassigned) [Compound 10] | 0.01 | 0.002 µg/mL | – | –
CCC(C)C1OC2(C=CC1C)CC1CC(CC=C(C)C(OC3CC(OC)C(OC4CC(OC)C(=CC=O)C(C)O4)C(C)O3)C(C)C=CC=C3COC4C(O[Si](C)(C)C(C)(C)C)C(C)=CC(C(=O)O1)C34O)O2 (stereo not drawn) [Compound 5] | 100 | 100 µg/mL | – | –
CCC(C)C1OC2(C=CC1C)CC1CC(CC=C(C)C(OC3CC(OC)C(OC4CC(OC)C(=CC=NO)C(C)O4)C(C)O3)C(C)C=CC=C3COC4C(O)C(C)=CC(C(=O)O1)C34O)O2 (single isomer, unassigned) [Compound 9] | 0.01 | 0.002 µg/mL | – | –
CCC(C)C1OC2(C=CC1C)CC1CC(CC=C(C)C(OC3CC(OC)C(OC4CC(OC)C(=CCOC(=O)c5ccc(Cl)nc5)C(C)O4)C(C)O3)C(C)C=CC=C3COC4C(O)C(C)=CC(C(=O)O1)C34O)O2 (stereo not drawn) [Compound 34] | 0.002 | 0.002 µg/mL | – | –
